# Measured values from patent US20200016207A1, “[…] c-MPL PROVIDES LIGAND-DEPENDENT CO-STIMULATION AND CYTOKINE SIGNALS TO TCR-ENGINEERED T CELLS” (Baylor College of Medicine, priority 2017, published 2020).
# How the values were obtained:
# c-MPL+ T cells = experiment: EP dose-titration, T cell expansion on OKT3/CD28-coated plates; assay type: cell-based, human
# Experimental: Similar results were obtained with the TPO small molecule agonist EP. A dose-titration experiment was used to determine the optimal concentration of EP to support c-MPL+ T cell expansion (FIG. 2C). EP was previously shown to inhibit leukemia cell proliferation at higher concentrations (1-10 μg/ml) by reduction of intracellular iron, a c-MPL independent effect (Roth et al., 2012). NT or c-MPL+ T cells were re-activated on OKT3/CD28-coated plates in the presence of different EP concentrations and expansion of viable T cells was determined after 7 days. […] Thus, the effective EP concentration for c-MPL+ T cells was about 1 log lower than in previous reports assessing effects of EP on megakaryocytic progenitor cells or leukemia cells *Roth et al., 2012; Will et al., 2009). To assess c-MPL ligand-dependent signaling in TCR+c-MPL+ T cells, cells were left untreated (noCK) or treated with TPO50 or EP for 1 (left) or 24 hours (right). […] Next, it was evaluated whether rhTPO enhanced the anti-tumor function of TCR+c-MPL+ T cells using two different HLA-A*0201+survivin+hematologic malignancies as targets (U266 multiple myeloma, BV173 leukemia) (FIGS. 2E-2F). […] Again, addition of IL2 led to significant but antigen-independent enhancement of T cell expansion.
# [1] = tested on: immune synapses between TCR+c-MPL+ T cells and BV173 leukemia cells; experiment: Immunological synapse imaging (confocal microscopy); assay type: cell-based, human; conditions: mean±SD
# Experimental: T cells isolated from sequential killing co-cultures and fresh BV173 target cells were mixed at E:T 1:2, incubated for 10 minutes, fixed, permeabilized, stained with the appropriate antibodies, and analyzed on a Leica TCS SP8 laser scanning microscope. T cells were co-cultured with BV173 cells at an E:T ratio of 1:5 in CTL media with no cytokines, rhTPO (50 ng/mL) or EP (0.1 μg/mL). After one killing (no cytokine condition) or three sequential killings (rhTPO and EP conditions), cells were collected and dead cells removed (Dead Cell Removal Kit, Miltenyi) (FIG. 4A). For confocal microscopy, T cells and fresh BV173 target cells were mixed at E:T ratio of 1:2, incubated for ten minutes in a tube and ten minutes on silane-coated glass slides (Electron Microscopy Sciences) at 37° C. Cells were then permeabilized and fixed with Perm/Fix solution (BD) for 15 minutes at room temperature and stained with anti-Pericentrin (rabbit, Abcam) and anti-Perforin Alexa-488 (mouse, BD Biosciences) primary antibodies. Phalloidin 568 (Life Technologies) was used to detect F-actin. Cells were imaged as Z stacks of 0.2 μm thickness to cover their entire volume on a Leica TCS SP8 laser scanning microscope using a 100× objective. Images were acquired with the LASAF software (Leica) and analyzed with Imaris software (Imaris) and Fiji.
# [2] = after three tumor cell challenges
# [3] = baseline after T cell expansion
smiles,measurement,setting,value
"CC1=NN(c2ccc(C)c(C)c2)C(=O)/C1=N\Nc1cccc(-c2cccc(C(=O)O)c2)c1O [EP, eltrombopag, reference compound]",effect of EP treatment at 3 μg/ml on T cells,c-MPL+ T cells; 3 μg/ml,uniformly lethal to T cells
same,effect of EP levels higher than 0.1 μg/ml on T cells,c-MPL+ T cells; 7 days,toxic to the T cells
same,EP concentration retained to support c-MPL+ T cell expansion,"c-MPL+ T cells; 7 days, OKT3/CD28-coated plates",0.1 µg/mL
same,"MTOC to synapse distance, co-culture",[1]; [2],1.09±1.16 μm
same,"perforin distance to the synapse (perforin convergence), co-culture",[1]; [2],4.25±1.28 μm
same,"actin accumulation at the synapse, co-culture","[1]; after three tumor cell challenges, rhTPO 50 ng/mL or EP 0.1 μg/mL",53.29±12.47%
same,"MTOC to synapse distance, baseline",[1]; [3],2.42±2.14 μm
same,"actin accumulation at the synapse, baseline",[1]; [3],40.95±14.82%
same,"perforin distance to the synapse (perforin convergence), baseline",[1]; [3],4.26±2.04 μm
